Here are results for one molecule from patent publication US20190175560A1, “MEBENDAZOLE CANCER THERAPIES AND METHODS OF USE” (Shepherd Therapeutics, Inc., priority 2017, published 2019).

Common to all, as to assay: Synergy of MBZ with chemotherapeutic agents (Chou-Talalay CI, Cell Titer Glo)
What all share (format): cell-based
Holding throughout (details): in combination with MBZ, 72 hour incubation
On the technique in general: In ATP-based viability assays light output follows the ATP content of the culture.

In one assay the test system is LO68 mesothelioma cells.
The next assay relates to JU77 mesothelioma cells.
Assay [1] has as its system SK-UT-1B leiomyosarcoma cells.
The subject of assay [2] is TFK-1 cholangiocarcinoma cells.
The subject of assay [3] is HepG2-C3A hepatocellular carcinoma cells.
The test system of assay [4] is Hs766t pancreatic carcinoma cells.
The subject of assay [5] is SK-UT-1 leiomyosarcoma cells.
Assay [6] concerns SK-LMS-1 leiomyosarcoma cells.
Assay [7] has as its system BxPC-3 pancreatic carcinoma cells.
Assay [8] concerns CCC-5 cholangiocarcinoma cells.
In assay [9] the test system is HepG2 hepatocellular carcinoma cells.
In assay [10] the test system is MSTO-211H mesothelioma cells.

`Nc1ccn([C@@H]2O[C@H](CO)[C@@H](O)C2(F)F)c(=O)n1` [Gemcitabine]: the “CI range for the concentration pairings” value with LO68 mesothelioma cells is 0.525-0.845; in the assay with JU77 mesothelioma cells it was 0.362-0.712; in [1] it was 0.410-0.893; in [4] it was 0.149-0.874; in assay [5] it was 0.385-0.802; in assay [6] it was 0.418-0.861. Besides, the “CI range for the concentration pairings” value in assay [7] is given as 0.502-0.770; in [8], 0.394-0.855; in [9], 0.012-0.796; in assay [10], 0.086-0.796. Moreover, the “synergy with MBZ (Yes/No)” value in [2] and in assay [3] was “No” each time.
